Earlier results in patent US20110076334A1, “METHODS AND COMPOSITIONS FOR TREATMENT OF RAYNAUD'S PHENOMENON” (priority 2009, published 2011).
Like-named read-outs stand apart in the source and are kept apart here.

Legend:
[1] = ultra-short acting calcium channel blocker; marketed injectable emulsion
[2] = clevidipine
[3] = in vivo

Molecule | onset of action [1] | initial phase half-life [2] | terminal half-life [2] | half-life (second phase) [3] | initial phase half-life [3] | terminal half-life [3]
CCCC(=O)OCOC(=O)C1=C(C)NC(C)=C(C(=O)OC)[C@H]1c1cccc(Cl)c1Cl (stereo in doubt) [Clevidipine, butyroxymethyl methyl 4-(2′,3′-dichlorophenyl)-2,6-dimethyl-1,4-dihydropyridine-3,5-dicarboxylate] | 1 to 2 min | approximately 1 minute | approximately 15 minutes | – | – | –
(±)-2-(benzyl-methyl amino) ethyl methyl 1,4-dihydro-2,6-dimethyl-4-(m-nitrophenyl)-3,5-pyridinedicarboxylate monohydrochloride [nicardipine] | – | – | – | about 44.8 minutes | approximately 2.7 minutes | approximately 14.4 hours
